Here are results for one compound from US20230333087A1, “METHODS FOR MONITORING PATIENT RESPONSE TO TREATMENT OF RETINAL OXIDATIVE DISEASES” (BioJiva LLC, priority 2022, published 2023).

The subject of data set [1] is lipid peroxidation in a lipid membrane. The following applies: present at 1% fraction of the total PUFAs in a lipid membrane in vitro; cited from earlier work.
Data set [2] in a line: D-DHA substitution rates in plasma, red blood cells and retina of mice on 0.5% w/w D-DHA diet. The following applies: for doubling interval of D-DHA substitution rate: first order kinetics. Format: in vivo, C57BL/6J mice. An excerpt:
Mature adult C57BL/6J mice were fed for 78 days with a customized rodent diet containing 0.5% w/w D-DHA and no natural DHA. The animals were sacrificed, and plasma, red blood cells and retinal tissues were dissected at study Days 8, 19, 38, 78, (six animals per time point, 3 males + 3 females). D-DHA + DHA were extracted from samples and derivatized into methyl esters with a mixture of heptane/ toluene (63:37 by volume), and methanol/ dimethoxypropane/ sulfuric acid (85:11:4 by volume) by gentle shaking at 80° C. for 2 hours, followed by separation and drying down of the organic phase under nitrogen. D-DHA + DHA methyl esters were structurally identified and quantified by gas chromatography coupled with a tandem mass spectrometry detector and D-DHA substitution levels (in percent of total DHA) were calculated. The results are represented in Table 1 and graphed in FIG. 1.

The test system of data set [3] is neural retina mRNA levels. The experiment in a line: Quantitative PCR of mRNA changes in the neural retina. The class given is in vivo, C57BL/6J mice. The following applies: 1 week after injection. On the procedure:
Quantitative PCR was used to evaluate mRNA changes in the neural retinas of mice fed with D-DHA or DHA for 4 weeks. Cell-type specific, iron regulating, antioxidant, and inflammation related genes were evaluated at 1 week after iron or saline injections. The mRNA levels of the rod-specific gene rhodopsin (Rho), cone-specific gene cone opsin1 medium wave sensitive and short wave sensitive (Opn1mw and Opn1sw) were measured to assess the stress and differentiation of rod and cone photoreceptors. […] In contrast, there was no change in these mRNAs in the neural retinas of D-DHA/IVT iron mice relative to IVT saline controls (FIG. 9). The mRNA levels of transferrin receptor (Tfrc) which are inversely related to intracellular iron levels, can be used as an indicator of intracellular iron levels. […] These two groups had slightly different Tfrc levels, perhaps as a result of loss of some photoreceptors in the DHA/IVT iron group (FIG. 9). The mRNA levels of antioxidants solute carrier family 7 member 11 (SLC7A11), glutathione peroxidase 4 (GPX4), glutathione S-transferase isoform m1(GSTm1), glutathione synthesis (GSS), catalase (Cat), heme oxygenase 1 (Hmox1), and superoxide dismutase 1 (Sod1) were measured to investigate oxidative stress. […] The mRNA levels of IL1β, IL6 and cluster of differentiation 68 (Cd68) were detected to investigate the retinal inflammation. […] The mRNA levels of Glutathione-synthase (GSS) and IL6 were not increased by IVT iron in mice on either diet (FIG. 9).
Neural retina tissues were isolated as previously described (e.g., M Hadziahmetovic et al. Age-dependent retinal iron accumulation and degeneration in hepcidin knockout mice. Investigative ophthalmology & visual science. Jan. 5, 2011;52(1):109-18).Gene expression changes in the neural retina and purified RPE cells were evaluated. Gapdh was used as an endogenous control. […]

For data set [4], the system named is iron-induced retinal autofluorescence and degeneration. The experiment in a line: Iron-induced retinal autofluorescence and degeneration, cSLO and OCT imaging 1 week after intravitreal iron. Format: in vivo, C57BL/6J mice. How it is done:
To evaluate the protective effect of 0.25% D-DHA diet, confocal scanning laser ophthalmoscopy (cSLO) and optical coherence tomography (OCT) were employed for in vivo imaging at 1 week after injections. For the cSLO imaging, both blue autofluorescence (BAF) and near-infra autofluorescence (IRAF) were performed.
Adult male wild-type C57BL/6J mice (Stock No.000664, Jackson Labs, Bar Harbor, ME, USA) were housed in standard conditions under cyclic light (12 h:12 h light-dark cycle). Mice had ad libitum access to water and food. Beginning at 2 mo of age, mice were placed on the AIN93G diet described above, supplemented with 0.25% D-DHA or DHA (control diet) for 1 week, 2 weeks, 3 weeks, or 4 weeks prior to the intravitreal injection. Mice were given an intravitreal injection of 1 µl 0.5 mM ferric ammonium citrate diluted in 0.9% NaCl (saline) (MP Biomedicals LLC, Santa Ana, CA) or
1 µl of saline as control. Intravitreal injections were performed as previously described ^54. Mice were continued on respective diet until their final evaluation. All housing and procedures were performed according to the NIH Guide for the Care and Use of Experimental Animals and approved by the University of Pennsylvania Animal Care and Use Committee.
Mice were given general anesthesia and placed on a platform. Pupils were dilated with 1% tropicamide saline solution (Akorn, Inc., Lake Forest, IL). Optical coherence tomography (OCT) imaging was performed for visualization of the retinal structure by using a Bioptigen
Envisu (R2200, Bioptigen Inc., Durham, NC, USA) coupled to a broadband LED light source (T870-HP, Superlum Diodes, Ltd, Ireland). Confocal scanning laser ophthalmoscopy (cSLO) (Spectralis HRA, Heidelberg Engineering, Franklin, MA, USA) was used for visualization of retinal AF using BluePeak™ or simply blue AF (488 nm excitation) and near-infrared AF (787 nm excitation) imaging modes.

For `[2H]C([2H])(/C=C\CC)/C=C\C([2H])([2H])/C=C\C([2H])([2H])/C=C\C([2H])([2H])/C=C\C([2H])([2H])/C=C\CCC(=O)OCC` [D-DHA, 6,6,9,9,12,12,15,15,18,18-D10-(4Z,7Z,10Z,13Z,16Z, 19Z)-docosa 4,7,10,13,16, 19-hexaenoic acid ethyl ester], in data set [1], the “inhibition of LPO in liposomes” value is reported as “efficiently inhibited the LPO”. The “D-DHA substitution levels (in percent of total DHA)” value is 20.89% in data set [2] (neuroretina, day 8); 42.94% in data set [2] (neuroretina, day 19); 70.74% in data set [2] (neuroretina, day 38); 92.10% in data set [2] (neuroretina, day 78); 84.78% in data set [2] (plasma, day 8 after first exposure, 0.5% w/w D-DHA diet); 94.17% in data set [2] (plasma, day 19). The “D-DHA substitution levels (in percent of total DHA)” value was 97.34% in data set [2] (plasma, day 38); 98.43% in data set [2] (plasma, day 78); 48.24% in data set [2] (red blood cells, day 8); 72.84% in data set [2] (red blood cells, day 19); 94.12% in data set [2] (red blood cells, day 38); 96.65% in data set [2] (red blood cells, day 78). The “doubling interval of D-DHA substitution rate” value was 6 to 7 days in data set [2] (plasma), around 10 days in data set [2] (red blood cells) and 20 to 22 days in data set [2] (retina). Also, the “upregulation of antioxidants mRNA (Slc7a11, Gpx4, GSTm1, Cat, Hmox1, Sod1)” value in data set [3] (D-DHA/IVT iron eyes) is recorded as “prevented”. Besides, the “mRNA levels of Rho, Opn1sw (photoreceptor genes)” value in data set [3] (D-DHA/IVT iron relative to IVT saline controls) is “no change”. In addition, the “mRNA levels of IL1β and Cd68” value in data set [3] (D-DHA/IVT iron retinas) is listed as “not increased”. Besides, the “iron induced retinal AF (BAF and IRAF cSLO images)” value in data set [4] (0.25% D-DHA diet for 1, 2, 3 and 4 weeks before iron injection, 1 week after injection) is “dose-dependent reduction”. Also, in data set [4] (at >30% retinal D-DHA substitution levels), the “protective effects (reduction of AF area)” value is reported as above 50%. Moreover, the “retinal structure in OCT scans” value in data set [4] (fed D-DHA for 4 weeks, 1 week after iron injection) is given as “complete protection”. In data set [4] (fed D-DHA for 4 weeks, >50% substitution in neural retina), the “protection against iron-induced retinal damage” value is reported as “nearly complete protection”.
